# Experimental data: patent US9669054B2, “pH buffered bioactive glass, and its preparation process and use” (CHANGZHOU BIO-SHENG TECHNOLOGY CO., LTD., priority 2011, dated 2017)
# What was measured:
# Type in all cases: in vivo
# [1] = system: acetic-acid induced chronic gastric ulcers; assay: Treatment of acetic-acid induced chronic gastric ulcers in rats
# Method: After fasting for 24 hours, the rats were anesthetized and disinfected in a conventional way, and then was cut from the xiphoid down along the medioventral line to about 2 cm, so as to remove the stomach from the enterocoelia; 5 μl of 100% glacial acetic acid was injected by using a microsyringe into a position close to the muscular layer below the anterior wall serosa of the gastric antrum; when a translucent white spot with a diameter of about 3 mm appeared, the stomach was given back to the enterocoelia, and was enveloped in omentum majus; then, peritoneum, muscular layer and skin were sutured in this order.
# Each drug was divided into 5 groups according to the administration method described above, namely, a model group and four groups with different doses of drugs. Each group of the drugs was administered to 6 to 8 […]. At the third day after the surgery, the treatment started by intragastrically administering drugs to the rats once a day for 7 days, wherein normal saline was administered in the same volume to the rats in the model group instead. […] The following indices were measured:
# (1) ulcer index: the longest diameter in the length direction of an ulcer area and the longest diameter in the width direction perpendicular to the longest diameter in the length direction of the ulcer area were measured by a vernier caliper, and the product of the above two diameters is the ulcer index.
# (2) ulcer inhibition rate: it represents the inhibition effect of a drug on the ulcer index.
# [2] = system: IL-1β-induced recurrence of acetic-acid induced chronic gastric ulcers; assay: Prevention of IL-1β-induced recurrence of acetic-acid induced chronic gastric ulcers in rats; conditions: 10 mg/kg/d intragastric for 7 days before IL-1β
# Method: In this study and experiment, we evaluated the preventive effect of the tested drug (namely, the bioactive glass) on the recurrence of chronic gastric ulcers by adopting the rat model of IL-1β-induced recurrence of acetic-acid induced chronic gastric ulcer, and using omeprazole as the control.
# The model of acetic-acid induced chronic gastric ulcer was first copied here: After fasting for 24 hours, the rats were anesthetized and disinfected in a conventional way, and then was cut from the xiphoid down along the medioventral line to about 2 cm, so as to remove the stomach from the enterocoelia; 5 μl of 100% glacial acetic acid was injected by using a microsyringe into a position close to the muscular layer below the anterior wall serosa of the gastric antrum; when a translucent white spot with a diameter of about 3 mm appeared, the stomach was given back to the enterocoelia, and was enveloped in omentum majus; then, peritoneum, muscular layer and skin were sutured in this order. 90 days after the injection of acetic acid, a model of gastric ulcer recurrence was copied by intraperitoneal injection of 1 μg/kg of IL-1β according to the method described in “Role of neutrophils in a rat model of gastric ulcer recurrence caused by interleukin-1 beta”, T. Watanabe, T. Arakawa, T. Fukuda, K. Higuchi, and K. Kobayashi, Am J Pathol, 1997, 150:971-979 . […]
# [3] = system: mouse stress-induced gastric ulcers; assay: Comparative experiment on inhibition of stress-induced gastric ulcers versus representative drugs; conditions: mice, intragastric, stress in water 15 hours
# Method: The mice were divided into four groups, to which deionized water (the solvent control group), and three kinds of Weibeisheng with pH 7, 8 and 9 at a dose of 1 g/kg were respectively intragastrically administrated. Two hours later, the mice were subjected to stress in water at 21±1° C. for 15 hours, and were administered again two hours before the end of the stress. Then the animals were killed and autopsy was performed. […]
# Two hours later, the mice were subjected to stress in water at 21±1° C. for 15 hours (the drug was administered to the Weibeisheng group again two hours before the end of stress). […] After the ulcer index of each group was scored, the inhibition effect of each drug on mouse stress-induced gastric ulcers (namely, the maximum inhibition rate Emax) was calculated.
# The ratios used in these two Experiment Examples were determined according to the weight of the mouse and the amount of intragastric administration.
smiles,measurement,setting,value
"COc1ccc2[nH]c([S+]([O-])Cc3ncc(C)c(OC)c3C)nc2c1 (centres unmarked) [Omeprazole, omeprazole]",ED50,"[1]; Rattus norvegicus, po, 168 h, rats, intragastric once a day for 7 days, ulcer inhibition rate, read-out: ED50 (median effective dose)",1.3 mg/kg
same,median effective dose ED50 for treating chronic gastric ulcers,"[1]; chronic gastric ulcers, as stated in summary/description",1.3 mg/kg/day
same,Emax (maximum inhibition rate),"[1]; rats, intragastric once a day for 7 days",66.2 ± 7.4%
same,preventive effect on the recurrence of chronic gastric ulcers (inhibition rate),[2],50%
same,Emax (% inhibition rate),[3],64.8 % inhibition rate
